Values joined by “and” are separate entries in the source; they are usually repeats but may differ in a detail not shown here. Equal values may be shown once.
Legend:
[1] = Metabolite profiling by HPLC radiochromatography in plasma, urine and faeces; assay type: in vivo, human; design: key to Plasma (% AUC relative to TRA); share of circulating radioactivity / % of dose excreted, urine: ND: not detected; D: detected by MS, but at concentrations too low to accurately quantify by radiochromatography; settings: for Plasma (% AUC relative to TRA); share of circulating radioactivity: AUC0-t (unchanged drug or metabolite)/AUC0-48 (TRA) * 100%; for % of dose excreted, faeces: faeces collected up to 96-h post-dose; for % of dose excreted, urine: urine collected up to 48-h post-dose; for Share of the excreted radioactivity / excreted dose: urine plus faeces; for half-life / Tmax: human; for half-life: read-out: Plasma t½ (converted); for Tmax: male; for Plasma Cmax: plasma radioactivity concentrations and radiochromatography
Method: Individual plasma samples collected from all subjects at 0.5, 1, 2.5, 8, 24, 36 and 48 h post-dose were analysed for metabolite profiling. A pooled sample (equal volume from 0.5,1,2.5,8 and 24 h) from subject 1 was also used for metabolite profiling. Three volumes of acetonitrile were added to each sample, followed by mixing and centrifu-gation. The supernatant was removed and the pellet was washed twice with acetonitrile. The combined superna-tants were evaporated to dryness under a stream of nitrogen. The residues were re-suspended in acetonitrile: 1% formic acid in water (1:1), assayed for extraction recovery and analysed for metabolite profiling.
For each subject, urine samples were pooled using an equal percentage by volume of the 0-4, 4-8, 8-12 and 12-24-h samples. The 24-48-h urine sample from each subject and a pool of the 0-168-h urine samples from subject 1 were also analysed for metabolite profiling. Samples were mixed and centrifuged prior to the supernatants being transferred to fresh tubes for metabolite profiling analysis.
Faecal homogenates for metabolite profiling were pooled using an equal percentage by weight to generate two pools (0-48 h and 48-96 h) for each subject. An additional pool (0-168 h) was prepared using the samples collected from subject 1. An aliquot (approximately 6 g) of each pool was extracted with three volumes of acetonitrile; samples were mixed and centrifuged. The supernatant was removed and the pellets were extracted twice with an additional 12 mL of acetonitrile each time. The combined supernatants were evaporated to dryness under a stream of nitrogen and the residue was re-suspended in a small volume (approximately 400 μL) of acetonitrile: 1% formic acid in water (1:1). Samples were assayed for extraction recovery prior to metabolite profiling.
HPLC analysis for metabolite profiling was performed using a Shimadzu LC-10ADVP (Shimadzu Corp., Columbia, MD) or a Waters 2695 Alliance Separation Module (Waters Corp., Milford, MA) with the autosampler set to an ambient temperature of approximately 22°C. ASPD-10A VPUV-Vis Detector or a Waters 996 Photodiode array detector set to 254 nm was used to detect UV absorbance. [^14C]Apremilast and metabolites were separated using a Phenomenex Luna C 18(2) column (150 × 4.6 mm, 3 μm; Phenomenex, Torrance, CA) equipped with a RP-18 guard column (15×3.2 mm, 7 μm) or using an ACE 3 C18 column (150 × 4.6 mm, 3 μm; Advanced Chromatography Technologies, Aberdeen, Scotland) equipped with an ACE 3 guard column (10×3mm, 3 μm). The mobile phases used were 0.4% formic acid in water; pH 3.2 with ammonium hydroxide (mobile phase A) and acetonitrile (mobile phase B). The column temperature was 30°C and the flow rate was 0.7mL/min. The linear gradient was delivered as follows: 0-5 min to 100% A; 5-20 min to 85% A; 20-30 min hold at 85% A; 30-50 min to 65% A; 50-60 min to 60% A; 60-70 min to 50% A; 70-75 min to 0% A; hold at 0% A until 80 min; return to initial conditions over 2 min.
Radioactivity profiles for excreta were determined by radiochromatography using liquid chromatography-accurate radioisotope counting stop-flow system (LC-ARC; AIM Research Company, Wilmington, DE). Radioactivity was detected using a β-Ram Radioflow detector (IN/US Systems, Brandon, FL) equipped with a 1300-μL liquid cell. Liquid scintillation cocktail and column eluate were mixed at a ratio of 2.5:1. Radioactive peaks were quantified using LC-ARC data handling software. Plasma radioactivity profiles were determined by collecting the column eluate into 96-well Deepwell LumaPlates at a rate of 0.25 min/fraction. The plates were dried and the radioactivity in each well determined using a PerkinElmer TopCount NXT Microplate Scintillation Counter. HPLC radiochromatograms were reconstructed using LC-ARC data handling software.
Pharmacokinetic data were generated by non-compartmental analysis of plasma or whole blood versus time profiles using WinNonlin (version 4.1, Enterprise Edition). […]

[2] = test system: PDE4 enzyme isolated from U937 human monocytic cells; assay: PDE4 inhibition, cAMP hydrolysis assay; assay type: biochemical; settings: for IC50: PDE4 from U937 cells, cAMP hydrolysis
Method: (§1) PDE4 enzyme was isolated from U937 human monocytic cells and used for testing inhibition in a cAMP hydrolysis assay as previously described ([Schafer et al. 2010]). For the TNF-α production assay, human peripheral blood mono-nuclear cells (PBMC) were isolated from buffy coat of normal donor blood units (Blood Center of New Jersey, East Orange, NJ) by density centrifugation over Ficoll Hypaque (Pharmacia, Piscataway, NJ). Cells were cultured in RPMI 1640 (Life Technologies, Grand Island, NY) supplemented with 5% AB^+ human serum (Gemini Bio-products, Woodland, CA), 2-mM L-glutamine, 100-U/mL penicillin and 100-μg/mL streptomycin (Life Technologies). PBMC (2×10^5 cells) were plated in 96-well flat-bottom Costar tissue culture plates (Corning, NY) in duplicate. Cells were stimulated with lipopolysaccharides (LPS) (from Salmonella abortus equi; Sigma cat.no. L-1887, St.Louis, MO) at a final concentration of 1 ng/mL in the absence or presence of compounds. The compounds were dissolved in DMSO (Sigma) and subsequent dilutions were done in culture medium immediately before use. The compounds were added to cells 1 h before LPS stimulation. The cells were incubated for 16-18 h at 37°C in 5% CO2, and super-natants were then collected, diluted with culture medium and assayed for TNF-α levels by enzyme-linked immunosorbent assay (ThermoFisher, Rockford, IL). Fifty percent inhibitory concentrations (IC50) for the PDE4 enzymatic and TNF-α assay were calculated by non-linear regression analysis using Prism 5.1 (GraphPad Software). Regression curves were sigmoidal dose response curves with maximum and minimum constrained to 100% and 0%, respectively.

[3] = test system: TNF-α production by human peripheral blood mononuclear cells; assay: TNF-α production assay in LPS-stimulated PBMC; assay type: cell-based; settings: LPS 1 ng/mL, 16-18 h, ELISA
Method: as §1

[4] = plasma, radiochromatography, single oral 20-mg dose, mean ± SD
[5] = plasma, radiochromatography, single oral 20-mg dose, median and range
[6] = single oral 20-mg dose, mean ± SD
[7] = radiochromatography, single oral 20-mg dose, mean ± SD

| Plasma (% AUC relative to TRA); share of circulating radioactivity [1] | % of dose excreted, faeces [1] | % of dose excreted, urine [1] | IC50 [2] [µM] | IC50 [3] [µM] | Molecule | other results |
| --- | --- | --- | --- | --- | --- | --- |
| 2.4% | – | 2.0 % of dose | – | – | COc1ccc([C@@H](CS(C)(=O)=O)N2C(=O)c3cccc(NC(C)=O)c3C2=O)cc1OC1OC(C(=O)O)C(O)C(O)C1O (stereo partly shown) [Metabolite M13] | Tmax [1, 5]: 2.5 h; Plasma Cmax [1, 6]: 7.5±6.8 ngEq/mL; Plasma AUC0-t [1, 7]: 133±125 ngEq*h/mL |
| 4.9% | – | 4.0 % of dose | > 80 | > 10 | CCOc1cc([C@@H](CS(C)(=O)=O)N2C(=O)c3cccc(N)c3C2=O)ccc1OC1OC(C(=O)O)C(O)C(O)C1O (stereo partly shown) [Metabolite M14, O-desmethyl, N-deacetyl apremilast glucuronide] | Tmax [1, 5]: 2.5 h; Plasma Cmax [1, 6]: 9.4±4.3 ngEq/mL; Plasma AUC0-t [1, 7]: 269±146 ngEq*h/mL |
| – | – | 3.3 % of dose | – | – | CCOc1cc([C@@H](CS(C)(=O)=O)NC(=O)c2cccc(NC(C)=O)c2C(=O)O)ccc1OC1OC(C(=O)O)C(O)C(O)C1O (stereo partly shown) [Metabolite M15] | – |
| 6.6% | – | 0.6 % of dose | 6.5 | > 10 | CCOc1cc([C@@H](CS(C)(=O)=O)N2C(=O)c3cccc(NC(=O)COC4OC(C(=O)O)C(O)C(O)C4O)c3C2=O)ccc1OC (stereo partly shown) [Metabolite M16] | half-life [1, 4]: 660 ± 144 min; Tmax [1, 5]: 5.3 h; Plasma Cmax [1, 6]: 27.6±26.0 ngEq/mL; Plasma AUC0-t [1, 7]: 363 ±54 ngEq*h/mL; Plasma AUC0-∞ [1, 7]: 389±91 ngEq*h/mL |
| – | 1.4 % of dose | – | – | – | CC(=O)Nc1cccc(C(=O)O)c1C(=O)O [Metabolite M18, 3-acetamide-phthalic acid] | – |
| – | 0.8 % of dose | – | – | – | CC(=O)Nc1cccc2c1C(=O)N([C@H](CS(C)(=O)=O)c1ccc(O)c(O)c1)C2=O [Metabolite M19, O-desmethyl, O-desethyl apremilast] | – |
| – | 0.5 % of dose | – | – | – | CS(=O)(=O)C[C@H](c1ccc(O)c(O)c1)N1C(=O)c2cccc(N)c2C1=O [Metabolite M20, N-deacetylated, O-desmethyl, O-desethyl apremilast] | – |
| – | 0.6 % of dose | – | – | – | COc1ccc([C@@H](CS(C)(=O)=O)NC(=O)c2cccc(NC(C)=O)c2C(=O)O)cc1O [Metabolite M22] | – |
| – | 3.0 % of dose | – | – | – | O=C(CO)Nc1cccc(C(=O)O)c1C(=O)O [Metabolite M23, hydroxy 3-acetamide-phthalic acid] | – |

Second part, the molecule before the results:

| Molecule | Plasma (% AUC relative to TRA); share of circulating radioactivity [1] | % of dose excreted, faeces [1] | % of dose excreted, urine [1] | IC50 [2] [µM] | IC50 [3] [µM] | other results |
| --- | --- | --- | --- | --- | --- | --- |
| CCOc1cc([C@@H](CS(C)(=O)=O)NC(=O)c2cccc(NC(C)=O)c2C(=O)O)ccc1OC [M1/M2] | D | 0.5 % of dose | 0.9 % of dose | 120 | 77 | – |
| CCOc1cc([C@@H](CS(C)(=O)=O)N2C(=O)c3cccc(NC(C)=O)c3C2=O)ccc1O [Metabolite M3, O-desmethyl apremilast] | D | 5 % of dose and 4.6 % of dose | D | 8.3 | 5.6 | Share of the excreted radioactivity / excreted dose [1]: > 4% |
| CCOc1cc([C@@H](CS(C)(=O)=O)N2C(=O)c3cccc(N)c3C2=O)ccc1O [Metabolite M4, N-deacetylated, O-desmethyl apremilast] | – | 2.4 % of dose | – | – | – | – |
| COc1ccc([C@@H](CS(C)(=O)=O)N2C(=O)c3cccc(NC(C)=O)c3C2=O)cc1O [Metabolite M5, O-desethyl apremilast] | – | – | – | 44 | 4.9 | – |
| CCOc1cc([C@@H](CS(C)(=O)=O)N2C(=O)c3cccc(N)c3C2=O)ccc1OC [Metabolite M7, N-deacetyl apremilast] | D | 0.1 % of dose | D | 0.16 | 0.13 | Concentration in circulation relative to apremilast ([1]; plasma): < 2%; PDE4 and TNF-α inhibition activity compared with apremilast ([2]; both assays, in words): IC50 values similar to those of apremilast |
| CCOc1cc([C@@H](CS(C)(=O)=O)NC(=O)c2cccc(NC(C)=O)c2C(=O)O)ccc1O [Metabolite M9] | – | 8 % of dose and 7.7 % of dose | – | – | – | Share of the excreted radioactivity / excreted dose [1]: > 4% |
| CCOc1cc([C@@H](CS(C)(=O)=O)N2C(=O)c3cccc(NC(=O)CO)c3C2=O)ccc1O [Metabolite M10, acetamide hydroxylated, O-desmethyl apremilast] | – | 1.3 % of dose | – | – | – | – |
| CCOc1cc([C@@H](CS(C)(=O)=O)N2C(=O)c3cccc(NC(C)=O)c3C2=O)ccc1O[C@@H]1O[C@H](C(=O)O)[C@@H](O)[C@H](O)[C@H]1O [Metabolite M12, O-desmethyl apremilast glucuronide] | 38.7% | – | 34 % of dose and 33.7 % of dose | > 100 | > 10 | Plasma (% AUC relative to TRA); share of circulating radioactivity ([1]; listed as O-desmethyl apremilast glucuronide): 39%; half-life [1, 4]: 948 ± 234 min; Tmax [1, 5]: 2.5 h; Plasma Cmax [1, 6]: 111±36 ngEq/mL; Plasma AUC0-t [1, 7]: 2124±331 ngEq*h/mL; Plasma AUC0-∞ [1, 7]: 2446±416 ngEq*h/mL; Share of the excreted radioactivity / excreted dose [1]: 34% |
| hydroxylated N-deacetylated apremilast [Metabolite M11] | 2.5% | 1.4 % of dose | – | – | – | Plasma Cmax [1, 6]: 20.2±7.6 ngEq/mL; Plasma AUC0-t [1, 7]: 139±89 ngEq*h/mL; Plasma AUC0-∞ [1, 7]: 232±151 ngEq*h/mL; Plasma t½ [1, 7]: 10.7 ± 10.2 h; Plasma Tmax ([1]; radiochromatography, single oral 20-mg dose, median and range): 1.0(0.5-2.5) h |
| hydroxylated N-deacetylated, O-desmethyl apremilast [Metabolite M8] | – | 1.0 % of dose | – | – | – | – |
